# Reference: patent US6124498A, “Hydroxynaphthoic acids and derivatives” (University Of New Mexico, priority 1998, dated 2000)
# “Also recorded” adds a separate entry of the source.
# Key:
# [1] = target: T1, pLDH (Plasmodium falciparum, UniProt Q27743); test: biochemical; format: biochemical; settings: for mode of inhibition of pLDH with respect to cofactor (NADH): vs cofactor NADH; for selectivity for pLDH compared to LDH-H: pLDH vs LDH-H
# T1 construct: made in house; host or cells: E. coli
# Experimental: (§1) Human LDH-H4 and LDH-M4 were from Sigma.
# (§2) LDH activity in the direction of NADH reduction of pyruvate to L-lactate was determined spectrophotometrically in pH 7.5 Tris buffer, 100 mM, containing 10 mM pyruvate and […], 25° C., 340 nm, ε=6.2 mM^-1 cm^-1. Michaelis constants were determined by nonlinear regression analysis of initial rate data using the Enzfitter program (Elsevier-Biosoft). Ki values were determined from double reciprocal plots by linear regression analysis.
# [2] = target: T2, human LDH-M (LDH-M4) (Homo sapiens, UniProt P00338); test: Inhibition of human lactate dehydrogenase LDH-M (LDH-M4), NADH reduction of pyruvate; format: biochemical; settings: for mode of inhibition of LDH-M with respect to cofactor (NADH): vs cofactor NADH; for selectivity for LDH-M compared to LDH-H: LDH-M vs LDH-H; for change in inhibition / dissociation constant of LDH-M relative to 13: group at 7-position, compared to 13
# T2 construct: purchased Sigma
# Experimental: Recombinant pLDH was produced in E. coli, similar to the procedure described by Bzik et al. in "Expression of Plasmodium falciparum Lactate Dehydrogenase in Escherida coli." in Mol. Biochem. Parasitol., 1993, 59, 155-166 and was purified by Cibacron blue affinity chromatography and chromatofocusing as described previously. Human LDH-H4 and LDH-M4 were from Sigma.
# as §2
# [3] = tested on: alcohol dehydrogenase; test: Inhibition of alcohol dehydrogenase; format: biochemical; settings: FIG. 14D
# Experimental: (§3) Other studies with other dehydrogenases that contain the classic Rossman fold, in addition to LDH, were carried out to test that inhibition of dehydrogenases by substituted didhydroxynaphthoic acids is not limited to inhibition of LDH. A number of dehydrogenases were examined as shown in FIGS. 14A (2,3-dihydroxy-6-methyl-7-(o-methylbenzyl)-4-(1-methylethyl)-1-naphthoic acid (25e) inhibition D-lactate dehydrogenase), 14B (2,3-dihydroxy-6-methyl-7-(m-methylbenzyl)-4-(1-methylethyl)-1-naphthoic acid (25f) inhibition of malate dehydrogenase), 14C (compound 25b inhibition of glucose 6-phosphate dehydrogenase) and 14D (compound 21e inhibition of alcohol dehydrogenase).
# [4] = tested on: glucose 6-phosphate dehydrogenase; test: Inhibition of glucose 6-phosphate dehydrogenase; format: biochemical; settings: FIG. 14C
# Experimental: as §3
# [5] = target: T3, human LDH-H (LDH-H4) (Homo sapiens, UniProt P07195); test: Inhibition of human lactate dehydrogenase LDH-H (LDH-H4), NADH reduction of pyruvate; format: biochemical; settings: group at 7-position, compared to 13
# T3 construct: purchased Sigma
# T3 sequence (P07195 2-334 limits assumed): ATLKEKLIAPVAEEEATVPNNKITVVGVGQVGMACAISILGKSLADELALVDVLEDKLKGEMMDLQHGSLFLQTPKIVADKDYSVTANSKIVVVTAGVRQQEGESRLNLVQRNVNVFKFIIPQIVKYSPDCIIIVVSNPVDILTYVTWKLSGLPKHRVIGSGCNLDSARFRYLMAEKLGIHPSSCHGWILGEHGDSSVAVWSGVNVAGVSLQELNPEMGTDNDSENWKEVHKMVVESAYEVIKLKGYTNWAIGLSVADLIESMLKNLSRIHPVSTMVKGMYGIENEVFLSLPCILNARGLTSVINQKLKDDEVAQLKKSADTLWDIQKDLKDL
# Experimental: as §1, §2
# [6] = tested on: LDH-M4; test: Quenching of intrinsic protein fluorescence of LDH-M4 in presence and absence of ADP; format: binding, human; settings: presence vs absence of ADP
# Text: (§4) To test the Pan-Active Site inhibitor model for the compounds of the present invention, the binding of dihydroxynaphthoic acids to pLDH and human LDH was examined using fluorescence techniques. The effects of ADP on the binding of inhibitors was compared with the effects of ADP on the binding of NADH to determine which part of the cofactor binding site was the target of the inhibitors. Representative results are shown in FIGS. 13A and 13B for the binding of compound 25c to pLDH. […] In FIG. 13B is shown the quenching of pLDH fluorescence by compound 25c in the presence and absence of ADP.
# [7] = target: T1, pLDH; test: Quenching of intrinsic protein fluorescence of pLDH in presence and absence of ADP; format: binding; settings: presence vs absence of ADP
# Text: as §4
# [8] = tested on: D-lactate dehydrogenase; test: Inhibition of D-lactate dehydrogenase; format: biochemical; settings: FIG. 14A
# Experimental: as §3
# [9] = tested on: malate dehydrogenase; test: Inhibition of malate dehydrogenase; format: biochemical; settings: FIG. 14B
# Experimental: as §3
# [10] = tested on: IMP dehydrogenase type 11; settings: dominant isoenzyme in neoplastic cells; cited from earlier work
# T1 sequence (Q27743 whole entry): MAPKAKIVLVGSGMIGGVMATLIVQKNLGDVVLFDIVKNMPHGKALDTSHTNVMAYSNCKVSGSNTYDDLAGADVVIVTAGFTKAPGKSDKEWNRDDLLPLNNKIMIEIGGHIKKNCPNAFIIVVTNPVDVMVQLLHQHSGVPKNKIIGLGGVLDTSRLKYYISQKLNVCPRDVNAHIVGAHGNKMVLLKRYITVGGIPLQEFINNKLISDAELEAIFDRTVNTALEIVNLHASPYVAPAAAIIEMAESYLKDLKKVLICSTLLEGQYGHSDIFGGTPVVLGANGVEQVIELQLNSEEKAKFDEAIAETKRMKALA
compound,measurement,setting,value
"Cc1ccc2c(C(=O)O)c(O)c(O)c(C(C)C)c2c1 [Compound 13, 8-deoxyhemigossylic acid, reference compound]",dissociation constant for inhibition of pLDH,[1]; in words,low μmolar range
same,mode of inhibition of pLDH with respect to cofactor (NADH),[1],competitive with the binding of NADH
same,mode of inhibition of LDH-M with respect to cofactor (NADH),[2],competitive with the binding of NADH
"Cc1ccc2c(C(=O)O)c(O)c(O)c(C)c2c1 [Compound 21a, 2,3-Dihydroxy-4,6-dimethyl-1-naphthoic acid]",selectivity for pLDH compared to LDH-H,[1],selectivity for pLDH and LDH-M compared to LDH-H
same,selectivity for LDH-M compared to LDH-H,[2],selectivity for pLDH and LDH-M compared to LDH-H
"Cc1cc2c(C)c(O)c(O)c(C(=O)O)c2cc1C [Compound 21b, 2,3-Dihydroxy-4,6,7-trimethyl-1-naphthoic acid]",selectivity for pLDH compared to LDH-H,[1],selectivity for pLDH and LDH-M compared to LDH-H
same,selectivity for LDH-M compared to LDH-H,[2],selectivity for pLDH and LDH-M compared to LDH-H
"Cc1cc2c(C)c(O)c(O)c(C(=O)O)c2cc1Cc1ccccc1 [Compound 21c, 7-Benzyl-2,3-dihydroxy-4,6-dimethyl-1-naphthoic acid]",selectivity for pLDH compared to LDH-H,[1],selectivity for pLDH and LDH-M compared to LDH-H
same,selectivity for LDH-M compared to LDH-H,[2],selectivity for pLDH and LDH-M compared to LDH-H
"CCCc1c(O)c(O)c(C(=O)O)c2cc(C)c(C)cc12 [Compound 21e, 2,3-Dihydroxy-6,7-dimethyl-4-n-propyl-1-naphthoic acid]",inhibition of alcohol dehydrogenase,[3],inhibition
same,selectivity for LDH-M compared to LDH-H,[2],190 fold
"Cc1cc2c(C(=O)O)c(O)c(O)c(C(C)C)c2cc1C [Compound 25a, 2,3-Dihydroxy-6,7-dimethyl-4-(1-methylethyl)-1-naphthoic acid]",change in inhibition / dissociation constant of pLDH relative to 13,"[1]; group at 7-position, compared to 13",little change in the dissociation constants
same,change in inhibition / dissociation constant of LDH-M relative to 13,[2],little change in the dissociation constants
"Cc1cc2c(C(C)C)c(O)c(O)c(C(=O)O)c2cc1Cc1ccccc1 [Compound 25b, 7-Benzyl-2,3-dihydroxy-6-methyl-4-(1-methylethyl)-1-naphthoic acid]",inhibition of glucose 6-phosphate dehydrogenase,[4],inhibition
same,change in inhibition / dissociation constant of LDH-H relative to 13,[5],markedly stronger inhibition
same,change in inhibition / dissociation constant of LDH-M relative to 13,[2],markedly stronger inhibition
"Cc1cc2c(C(C)C)c(O)c(O)c(C(=O)O)c2cc1Cc1ccc(C(F)(F)F)cc1 [Compound 25c, 7-p-Trifluoromethylbenzyl-2,3-dihydroxy-6-methyl-4-(1-methylethyl)-1-naphthoic acid]",effect of ADP on binding to LDH-M4 (fluorescence quenching),[6],The same results were obtained with LDH-M4
same,Ki,"[1]; pH 7.5 Tris, 25° C., read-out: Ki for inhibition of pLDH",200 nM
same,selectivity for pLDH over LDH-H,[1]; pLDH over LDH-H,400 fold
same,selectivity for pLDH over LDH-M,[1]; pLDH over LDH-M,75 fold
same,mode of inhibition of pLDH with respect to cofactor (NADH),[1],competitive against both cofactor and substrate
same,selectivity for pLDH compared to either human LDH,[1]; vs human LDH-M and LDH-H,highly selective in favor of pLDH
same,mode of inhibition of pLDH with respect to substrate,[1]; vs substrate (pyruvate),competitive against both cofactor and substrate; also recorded: appears competitive
same,competition with the ADP part of the NADH binding site of pLDH,[7],not competing with the ADP part of the NADH binding site
same,effect of ADP on binding to pLDH (fluorescence quenching),[7],enhances the binding of inhibitor
"Cc1ccc(Cc2cc3c(C(=O)O)c(O)c(O)c(C(C)C)c3cc2C)cc1 [Compound 25d, 2,3-dihydroxy-6-methyl-7-(p-methylbenzyl)-4-(1-methylethyl)-1-naphthoic acid]",Kd,"[2]; pH 7.5 Tris, 25° C.",30 nM
same,mode of inhibition of LDH-M with respect to cofactor (NADH),[2],competitive against both cofactor and substrate
same,mode of inhibition of LDH-M4 with respect to substrate,"[2]; vs substrate (pyruvate), FIGS. 12A and 12B",competitive against both cofactor and substrate
"Cc1ccccc1Cc1cc2c(C(=O)O)c(O)c(O)c(C(C)C)c2cc1C [Compound 25e, 2,3-dihydroxy-6-methyl-7-(o-methylbenzyl)-4-(1-methylethyl)-1-naphthoic acid]",inhibition of D-lactate dehydrogenase,[8],inhibition
"Cc1cccc(Cc2cc3c(C(=O)O)c(O)c(O)c(C(C)C)c3cc2C)c1 [Compound 25f, 2,3-dihydroxy-6-methyl-7-(m-methylbenzyl)-4-(1-methylethyl)-1-naphthoic acid]",inhibition of malate dehydrogenase,[9],inhibition
"NC(=O)C1=CN([C@@H]2O[C@H](COP(=O)(O)OP(=O)(O)OC[C@H]3O[C@@H](n4cnc5c(N)ncnc54)[C@H](O)[C@@H]3O)[C@@H](O)[C@H]2O)C=CC1 [NADH, reference compound]",effect of ADP on binding to pLDH (fluorescence quenching),[7],the presence of ADP competes with the binding of NADH
NC(=O)c1csc([C@@H]2O[C@H](COP(=O)(O)OP(=O)(O)OC[C@H]3O[C@@H](n4cnc5c(N)ncnc54)[C@H](O)[C@@H]3O)[C@@H](O)[C@H]2O)n1 [thiazole-4-carboxamide adenine dinucleotide],inhibition of IMP dehydrogenase type 11,[10],potent inhibitor
